Results taken from patent publication US20130344065A1, “Combination Treatment with VEGF-C Antagonists” (Vegenics Pty Ltd, priority 2010, published 2013).
Entries after “also recorded” stand apart in the source; their conditions may differ.

Legend:
[1] = biological target: T1, VEGF-C (Homo sapiens, UniProt P49767); experiment: Direct binding ELISA / BiaCore affinity of VGX-100; conditions: capture antigens VEGF-C, VEGF-D or VEGF
T1 construct: purchased R&D Systems
T1 sequence (P49767 112-227): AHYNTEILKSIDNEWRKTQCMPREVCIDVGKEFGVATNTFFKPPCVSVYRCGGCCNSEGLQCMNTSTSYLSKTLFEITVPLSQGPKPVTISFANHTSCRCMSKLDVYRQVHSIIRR
Description: VEGF-C antibody VGX-100 was assessed by a direct binding ELISA using VEGF-C, VEGF-D or VEGF (R&D Systems) as capture antigens and bound VGX-100 detected with rabbit anti-human IgG-HRP (Abcam).

[2] = tested on: PC-3 human prostate tumors (xenograft); experiment: Subcutaneous PC-3 xenograft, single therapy (Example 2); assay type: in vivo, nude mice
Description: Cells were implanted into 80 mice. […] The treatment with drugs began on the day after randomization. […] At the end of the experiment, statistical analysis was performed on the tumor growth rate of each treatment group versus that of the control.

## VGX-100: VEGF-C antibody; heavy chain SEQ ID NO: 3, light chain SEQ ID NO: 4
[1]
  Binding selectivity in direct binding ELISA: selectively recognized and bound to VEGF-C
[2]; VGX-100 40 mg/kg IP twice weekly, 40 mg/kg
  Tumor volume response: significant single-agent activity; also recorded: efficacy equivalent to bevacizumab at 10 mg/kg
[2]; VGX-100 10 and 20 mg/kg IP twice weekly
  Tumor volume response: improved over the negative control
